Laboratory results: PMC11249637, “Interaction of the Atypical Tetracyclines Chelocardin and Amidochelocardin with Renal Drug Transporters” (ACS Pharmacology & Translational Science, 2024)

Experiments:
[1] = molecular target: T1, mOat3 (Mus musculus, UniProt O88909); experiment: Three-point uptake (substrate assessment) in mOat3-overexpressing HEK293 cells; format: in vitro ADME
T1 construct: expressed in transfected cells; host or cells: HEK293
T1 sequence (O88909 1-537): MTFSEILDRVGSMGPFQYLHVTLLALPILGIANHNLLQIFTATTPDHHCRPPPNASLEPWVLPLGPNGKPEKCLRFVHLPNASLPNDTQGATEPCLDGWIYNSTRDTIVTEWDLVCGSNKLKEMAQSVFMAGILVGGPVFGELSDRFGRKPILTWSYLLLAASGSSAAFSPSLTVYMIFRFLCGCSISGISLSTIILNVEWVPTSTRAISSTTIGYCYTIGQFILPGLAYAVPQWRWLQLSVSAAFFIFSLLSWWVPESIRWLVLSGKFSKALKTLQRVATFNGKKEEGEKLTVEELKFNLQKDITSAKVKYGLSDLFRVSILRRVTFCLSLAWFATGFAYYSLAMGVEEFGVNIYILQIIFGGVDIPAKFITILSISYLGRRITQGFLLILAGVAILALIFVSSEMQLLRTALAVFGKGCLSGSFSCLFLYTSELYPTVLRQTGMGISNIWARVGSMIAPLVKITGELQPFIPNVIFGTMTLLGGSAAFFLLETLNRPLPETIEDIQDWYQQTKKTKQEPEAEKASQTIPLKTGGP
Description: (§1) This is important to gain a better understanding of the underlying mechanisms of secretion into urine. Therefore, we assessed the amount of compound taken up by the vector and transporter cells at three different concentrations (1, 10, and 100 μM for mOat1 and mOct1; 0.1, 1, and 10 μM for mOat3) and at two different incubation periods (1 and 5 min for mOat1 and mOct1; 5 and 10 min for mOat3).
The incubation buffer contained CHD and CDCHD in a final concentration of 0.1, 1, and 10 μM. After 5 and 10 min, the incubation was terminated. In addition, the probe inhibitor probenecid (100 μM) was added in one concentration to 10 μM CHD and CDCHD, respectively, and after 5 and 10 min, the incubation was stopped. Inhibition of mOat3-mediated ^3H-ES (1 μM) uptake by 100 μM probenecid was performed as a control experiment. After 1 min, the incubation was terminated. All experiments were conducted in triplicate.
First, a calibration curve was prepared by spiking different concentrations of CHD and CDCHD into the cell matrix. Caffeine was used as an internal standard. In addition, quality control samples (QCs) were prepared for CHD and CDCHD in a cell matrix. The following extraction procedures were used: 300 μL of acetonitrile/water (1:1) is added to the cell pellet (sample or calibration/QC sample) for 15 min at 2000 rpm on an Eppendorf MixMate vortex mixer. 10 μL of this extracted sample is used for further analysis. 10 μL of the extracted cell sample is further extracted with 25 μL of a mixture of methanol/acetonitrile (2:1) containing 12.5 ng/mL caffeine as an internal standard (on ice) for 5 min at 2000 rpm on an Eppendorf MixMate vortex mixer. […] Samples were analyzed using an Agilent 1290 Infinity II HPLC system coupled to an AB Sciex QTrap6500plus mass spectrometer. […]
For statistical testing of differences in uptake ratio or for the inhibitory effect, an ordinary one-way ANOVA test was performed using GraphPad Prism 9.5.1 software. […] Michaelis–Menten kinetics were determined using the Michaelis–Menten algorithm of GraphPad Prism 9.5.1 software. […]

[2] = molecular target: T2, mOct1 (Mus musculus, UniProt O08966); experiment: Three-point uptake (substrate assessment) in mOct1-overexpressing HEK293 cells; format: in vitro ADME
T2 construct: expressed in transfected cells; host or cells: HEK293
T2 sequence (O08966 1-556): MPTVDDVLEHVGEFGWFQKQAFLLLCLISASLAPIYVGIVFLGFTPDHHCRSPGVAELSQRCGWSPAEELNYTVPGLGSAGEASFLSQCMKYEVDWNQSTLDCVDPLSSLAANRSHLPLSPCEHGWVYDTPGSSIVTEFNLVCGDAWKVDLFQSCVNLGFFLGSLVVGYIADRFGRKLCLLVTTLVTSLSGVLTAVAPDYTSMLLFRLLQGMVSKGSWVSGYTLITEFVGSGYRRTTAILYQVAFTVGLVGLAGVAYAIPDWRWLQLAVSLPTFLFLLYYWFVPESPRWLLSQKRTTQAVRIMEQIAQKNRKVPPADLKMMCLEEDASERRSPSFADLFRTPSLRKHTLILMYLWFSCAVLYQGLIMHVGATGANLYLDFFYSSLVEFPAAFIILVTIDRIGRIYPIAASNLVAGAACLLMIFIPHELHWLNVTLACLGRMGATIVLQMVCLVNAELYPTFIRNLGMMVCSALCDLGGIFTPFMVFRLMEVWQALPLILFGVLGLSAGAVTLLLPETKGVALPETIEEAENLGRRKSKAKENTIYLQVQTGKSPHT
Description: as §1
The incubation buffer contained CHD and CDCHD in a final concentration of 1, 10, and 100 μM. After 1 and 5 min, the incubation was terminated. In addition, the probe inhibitor decynium22 (50 μM) was added in one concentration to 10 μM CHD and CDCHD, respectively, and after 1 and 5 min, the incubation was stopped. Inhibition of mOct1-mediated ^3H-MPP (10 μM) uptake by 50 μM decynium22 was performed as a control experiment. After 1 min, the incubation was terminated. All experiments were conducted in triplicate.
First, a calibration curve was prepared by spiking different concentrations of CHD and CDCHD into the cell matrix. Caffeine was used as an internal standard. In addition, quality control samples (QCs) were prepared for CHD and CDCHD in a cell matrix. The following extraction procedures were used: 300 μL of acetonitrile/water (1:1) is added to the cell pellet (sample or calibration/QC sample) for 15 min at 2000 rpm on an Eppendorf MixMate vortex mixer. 10 μL of this extracted sample is used for further analysis. 10 μL of the extracted cell sample is further extracted with 25 μL of a mixture of methanol/acetonitrile (2:1) containing 12.5 ng/mL caffeine as an internal standard (on ice) for 5 min at 2000 rpm on an Eppendorf MixMate vortex mixer. Then, samples were spun down at 15,870 × g for 10 min. Supernatants were transferred to standard HPLC glass vials. Samples were analyzed using an Agilent 1290 Infinity II HPLC system coupled to an AB Sciex QTrap6500plus mass spectrometer. LC conditions were as follows: column: Agilent Zorbax Eclipse Plus C18, 50 × 2.1 mm, 1.8 μm; temperature: 30°C; injection volume: 5 μL per sample; flow rate: 700 μL/min. Samples were run under the following conditions. Solvents: A: 100% water +0.1% formic acid; solvent B: 100% acetonitrile +0.1% formic acid. The gradient for CDCHD was as follows: 99% A at 0 min, 99% A until 0.1 min, 99–90% A from 0.1 to 1.0 min, 90–50% A from 1.0 to 2.4 min, 50–35% A from 2.4 to 2.7 min, 35–0% A from 2.7 until 4.5 min, 0% A until 5.5 min, 0–99% from 5.5 to 5.7 min, 99% A until 6.0 min. The gradient for CHD was as follows: 99% A at 0 min, 99% A until 0.1 min, 99–90% A from 0.1 to 1.0 min, 90–55% A from 1.0 to 2.3 min, 55–40% A from 2.3 to 2.5 min, 40–0% A from 2.5 until 4.5 min, 0% A until 5.5 min, 0–99% from 5.5 to 5.7 min, 99% A until 6.0 min. Mass transitions are depicted in Table S2.
For statistical testing of differences in uptake ratio or for the inhibitory effect, an ordinary one-way ANOVA test was performed using GraphPad Prism 9.5.1 software. For statistical testing of difference in uptake on vector- or transporter-overexpressing cells, an ordinary two-way ANOVA test was performed using GraphPad Prism 9.5.1 software. Michaelis–Menten kinetics were determined using the Michaelis–Menten algorithm of GraphPad Prism 9.5.1 software. Image resolution was adjusted by using GIMP software.

## Cc1ccc2c(C)c3c(c(O)c2c1O)C(=O)[C@@]1(O)C(=O)C(C(N)=O)=C(O)[C@@H](N)[C@H]1C3 [CDCHD, amidochelocardin]
[1]
  substrate of mOat3 (in words): is not a substrate
[2]
  substrate of mOct1 (in words): is not a substrate
[2]; 10 μM compound, 50 μM decynium22, 1 and 5 min
  uptake ratio (cells without vs with decynium22), mOct1: 1
[2]; Michaelis–Menten fit, 1, 10 and 100 μM
  mOct1: Vmax: 15.0 nM/min

## CC(=O)C1=C(O)[C@@H](N)[C@H]2Cc3c(c(O)c4c(O)c(C)ccc4c3C)C(=O)[C@@]2(O)C1=O [CHD, chelocardin]
[1]
  substrate of mOat3 (in words): is a substrate
[1]; Michaelis–Menten fit, 0.1, 1 and 10 μM
  Km: 6.1 µM
[2]
  substrate of mOct1 (in words): is a substrate
[2]; 10 μM compound, 50 μM decynium22, 5 min
  less uptake in the presence of the specific inhibitor decynium22, mOct1: around 50%
